Assay results published in ChEMBL document CHEMBL4376867 (J Med Chem, 2020).

Key:
[1] = molecular target: T1, Inhibitor of nuclear factor kappa-B kinase subunit epsilon (Homo sapiens, UniProt Q14164); assay: Inhibition of recombinant full length human C-terminal GST-tagged IKKepsilon expressed in baculovirus expression system using biotin-labelled Ahx-GDEDFSSFAEPG peptide as substrate preincubated with enzyme for 15 mins followed by substrate addition and further incubated for 30 mins in presence of 10 uM of ATP by TR-FRET assay
T1 sequence (Q14164 whole entry): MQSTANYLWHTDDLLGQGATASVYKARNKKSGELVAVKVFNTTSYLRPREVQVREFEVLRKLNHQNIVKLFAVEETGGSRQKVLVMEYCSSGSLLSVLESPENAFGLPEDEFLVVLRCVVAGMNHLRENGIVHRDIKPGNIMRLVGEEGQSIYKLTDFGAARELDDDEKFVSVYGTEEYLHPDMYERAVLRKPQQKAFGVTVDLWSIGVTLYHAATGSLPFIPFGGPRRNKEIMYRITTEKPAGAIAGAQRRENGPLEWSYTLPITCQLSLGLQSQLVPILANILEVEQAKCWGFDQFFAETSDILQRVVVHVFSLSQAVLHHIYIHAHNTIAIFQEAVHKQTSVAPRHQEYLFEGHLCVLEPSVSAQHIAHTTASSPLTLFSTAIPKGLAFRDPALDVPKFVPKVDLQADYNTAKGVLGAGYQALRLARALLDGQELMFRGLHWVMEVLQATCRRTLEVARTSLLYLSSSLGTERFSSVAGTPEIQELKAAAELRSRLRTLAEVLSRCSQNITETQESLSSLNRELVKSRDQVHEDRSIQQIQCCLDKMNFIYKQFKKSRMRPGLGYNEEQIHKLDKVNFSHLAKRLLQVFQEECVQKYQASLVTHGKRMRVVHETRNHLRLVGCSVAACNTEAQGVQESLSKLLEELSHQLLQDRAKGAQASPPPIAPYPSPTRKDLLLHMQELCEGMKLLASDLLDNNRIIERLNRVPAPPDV

IKK epsilon/TBK1 = molecular target: T2, IKK epsilon/TBK1 (Homo sapiens, UniProt Q14164+Q9UHD2); assay: Inhibition of IKKepsilon/TBK1 in human MDB-MB-231 cells transduced with lentiviral vector expressing human IRF3 assessed as decrease in poly(I:C)-stimulated IRF3 phosphorylation at S385/386 residues preincubated for 1 hr followed by poly(I:C) addition and measured after 1 hr; type: cell-based
T2 sequence (Q14164 whole entry): T1 sequence (Q14164 whole entry)
T2 sequence (Q9UHD2 whole entry): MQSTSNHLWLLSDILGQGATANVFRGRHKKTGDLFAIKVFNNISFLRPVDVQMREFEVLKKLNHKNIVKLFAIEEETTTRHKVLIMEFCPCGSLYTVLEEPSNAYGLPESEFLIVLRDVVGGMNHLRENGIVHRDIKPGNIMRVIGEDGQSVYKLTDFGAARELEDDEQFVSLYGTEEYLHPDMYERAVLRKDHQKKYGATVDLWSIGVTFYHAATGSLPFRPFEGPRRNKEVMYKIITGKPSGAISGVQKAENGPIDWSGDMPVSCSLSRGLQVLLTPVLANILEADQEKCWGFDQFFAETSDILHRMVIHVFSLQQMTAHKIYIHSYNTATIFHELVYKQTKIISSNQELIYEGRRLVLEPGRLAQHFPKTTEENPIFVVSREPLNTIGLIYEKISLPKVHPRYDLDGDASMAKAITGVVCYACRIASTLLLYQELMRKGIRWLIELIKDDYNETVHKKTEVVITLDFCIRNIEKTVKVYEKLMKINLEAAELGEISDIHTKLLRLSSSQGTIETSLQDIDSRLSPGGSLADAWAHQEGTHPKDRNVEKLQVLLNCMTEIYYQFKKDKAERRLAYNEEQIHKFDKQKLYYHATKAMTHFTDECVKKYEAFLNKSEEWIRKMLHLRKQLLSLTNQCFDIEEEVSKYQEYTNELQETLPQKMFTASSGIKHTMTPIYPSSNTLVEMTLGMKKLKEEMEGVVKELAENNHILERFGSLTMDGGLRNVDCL

[2] = molecular target: T3, Receptor-type tyrosine-protein kinase FLT3 (Homo sapiens, UniProt P36888); assay: Inhibition of recombinant human N-terminal GST-tagged FLT3 (564 to end residues) expressed in sf21 cells using biotin labelled Ahx-GGEEEEYFELVKKKK peptide as substrate preincubated with enzyme for 15 mins followed by substrate addition and further incubated for 45 mins in presence of 10 uM of ATP by TR-FRET assay
T3 sequence (P36888 whole entry): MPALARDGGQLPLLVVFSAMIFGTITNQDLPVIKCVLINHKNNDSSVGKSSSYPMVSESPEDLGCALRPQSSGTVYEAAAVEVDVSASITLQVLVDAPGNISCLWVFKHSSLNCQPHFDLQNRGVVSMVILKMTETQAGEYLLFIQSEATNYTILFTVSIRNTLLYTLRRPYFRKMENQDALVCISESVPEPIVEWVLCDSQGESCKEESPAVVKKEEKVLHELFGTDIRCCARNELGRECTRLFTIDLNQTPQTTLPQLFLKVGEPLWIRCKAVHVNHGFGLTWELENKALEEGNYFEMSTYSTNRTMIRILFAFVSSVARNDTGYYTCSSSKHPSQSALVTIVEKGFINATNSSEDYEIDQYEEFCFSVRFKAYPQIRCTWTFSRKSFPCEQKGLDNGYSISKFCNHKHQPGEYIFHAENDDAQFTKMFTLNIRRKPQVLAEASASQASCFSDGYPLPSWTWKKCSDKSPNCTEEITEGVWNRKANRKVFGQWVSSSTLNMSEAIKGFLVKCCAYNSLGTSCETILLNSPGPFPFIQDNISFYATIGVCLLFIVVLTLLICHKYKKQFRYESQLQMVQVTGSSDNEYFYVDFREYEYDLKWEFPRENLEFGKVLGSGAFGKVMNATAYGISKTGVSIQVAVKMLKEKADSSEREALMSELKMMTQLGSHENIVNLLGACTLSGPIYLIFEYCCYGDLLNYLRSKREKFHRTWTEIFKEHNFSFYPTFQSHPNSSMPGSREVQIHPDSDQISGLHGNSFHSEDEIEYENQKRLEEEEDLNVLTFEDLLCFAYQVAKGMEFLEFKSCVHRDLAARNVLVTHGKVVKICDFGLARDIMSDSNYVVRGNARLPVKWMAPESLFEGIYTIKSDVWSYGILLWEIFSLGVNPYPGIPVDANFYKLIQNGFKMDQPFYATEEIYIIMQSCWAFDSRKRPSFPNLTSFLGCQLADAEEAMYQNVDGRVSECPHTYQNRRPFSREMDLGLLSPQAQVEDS

[3] = Apparent permeability of compound across apical to basal membrane in human Caco2 cells at 2 uM in DMSO after 2 hrs by LC-MS/MS analysis; type: ADME, cell-based; conditions: Caco-2
[4] = Efflux ratio of apparent permeability across basolateral to apical membrane over apical to basolateral membrane in human Caco2 cells; type: ADME, cell-based; conditions: Caco-2
Cytochrome P450 3A4 = Cytochrome P450 3A4 (Homo sapiens, UniProt P08684); assay: Inhibition of CYP3A4 (unknown origin) measured under preincubated conditions; type: ADME
[5] = Oral bioavailability in Wistar rat at 0.30 mg/kg measured upto 24 hrs by LC-MS/MS analysis; type: ADME, organism-based; conditions: in vivo, 0.3 mg/kg
[6] = Toxicity in NMRI nude mouse xenografted with human SK-MEL-2 cells harboring NRAS/TP53 mutation assessed as body weight loss at 200 mg/kg, po bid for 35 days relative to control; type: organism-based; conditions: in vivo, 840 h

Chain of Cytochrome P450 3A4 (P08684 whole entry): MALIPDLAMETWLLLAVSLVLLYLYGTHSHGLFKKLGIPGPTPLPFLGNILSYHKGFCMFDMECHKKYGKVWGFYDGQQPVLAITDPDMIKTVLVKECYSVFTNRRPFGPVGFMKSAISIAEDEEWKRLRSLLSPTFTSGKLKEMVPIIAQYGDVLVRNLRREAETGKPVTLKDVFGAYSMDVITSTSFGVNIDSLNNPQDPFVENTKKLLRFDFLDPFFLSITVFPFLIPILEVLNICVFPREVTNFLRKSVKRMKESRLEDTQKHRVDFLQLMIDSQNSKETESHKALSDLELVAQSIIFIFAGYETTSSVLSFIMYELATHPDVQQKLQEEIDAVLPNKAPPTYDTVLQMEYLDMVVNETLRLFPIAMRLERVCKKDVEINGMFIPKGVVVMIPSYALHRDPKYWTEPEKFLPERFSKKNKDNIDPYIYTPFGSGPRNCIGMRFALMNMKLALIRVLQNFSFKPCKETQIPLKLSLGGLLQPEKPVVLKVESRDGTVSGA

| SMILES | IC50 [1] | IC50 (IKK epsilon/TBK1) | IC50 [2] | Papp A→B at 2 h, 2 µM [3] | efflux ratio [4] | IC50 (Cytochrome P450 3A4) | bioavailability [5] | Activity [6] |
| --- | --- | --- | --- | --- | --- | --- | --- | --- |
| C[C@H](c1ccnc(Nc2nc3ccc(-c4cc(OCC5CC5)ncn4)cc3[nH]2)c1)N1CCN(C(=O)CC(F)(F)F)CC1 | 4 nM | 66 nM | 13 nM | – | – | – | – | – |
| Cc1noc(-c2ccc3nc(Nc4cc([C@@H](C)N5CCN(C(=O)CC(F)(F)F)CC5)ccn4)[nH]c3c2)n1 | 37 nM | 1210 nM | 30 nM | 10.8 ×10⁻⁶ cm/s | 0.8 | – | – | – |
| CC(C)Oc1cncnc1-c1ccc2nc(Nc3cc([C@@H](C)N4CCN(C(=O)CC(F)(F)F)CC4)ccn3)[nH]c2c1 | – | 119 nM | 1 nM | – | – | – | – | – |
| Cc1cc(-c2ccc3nc(Nc4cc([C@@H](C)N5CCN(C(=O)CC(F)(F)F)CC5)ccn4)[nH]c3c2)ncn1 | 4 nM | 140 nM | 10 nM | – | – | – | – | – |
| C[C@H](c1ccnc(Nc2nc3ccc(-c4cnn(CC5CC5)c4)cc3[nH]2)c1)N1CCN(C(=O)CC(F)(F)F)CC1 | 6 nM | 131 nM | 18 nM | 1.6 ×10⁻⁶ cm/s | 7.5 | – | – | – |
| O=C(CC(F)(F)F)N1CCN(Cc2ccnc(Nc3nc4ccc(-c5cnn(CC6CC6)c5)cc4[nH]3)c2)CC1 | 7 nM | 368 nM | 9 nM | 3.2 ×10⁻⁶ cm/s | 3.9 | – | – | – |
| C[C@H](c1ccnc(Nc2nc3ccc(-c4cc(N(C)C)ncn4)cc3[nH]2)c1)N1CCN(C(=O)CC(F)(F)F)CC1 [BAY-985] | 2 nM | 74 nM | 123 nM | 0.89 to 0.9 ×10⁻⁶ cm/s | 17 | > 20000 nM | 11% | < 10% |
| Cc1noc(-c2ccc3nc(Nc4cc(CN5CCN(C(=O)CC(F)(F)F)CC5)ccn4)[nH]c3c2)n1 | 168 nM | 2750 nM | 37 nM | 4.2 ×10⁻⁶ cm/s | 3.4 | – | – | – |
| COCc1cc(-c2ccc3nc(Nc4cc([C@@H](C)N5CCN(C(=O)CC(F)(F)F)CC5)ccn4)[nH]c3c2)ncn1 | 2 nM | – | 5 nM | 1.4 ×10⁻⁶ cm/s | – | – | – | – |
| CNc1cc(-c2ccc3nc(Nc4cc(CN5CCN(C(=O)CC(F)(F)F)CC5)ccn4)[nH]c3c2)ncn1 | 10 nM | 1990 nM | 6 nM | – | – | – | – | – |
| CN(C)c1cc(-c2ccc3nc(Nc4cc(CN5CCN(C(=O)CC(F)(F)F)CC5)ccn4)[nH]c3c2)ncn1 | 10 nM | 213 nM | 114 nM | – | – | – | – | – |
